Where a SMILES comes first, the peptide text is derived from it. [ ]: non-standard residue; d: D form. Orn = NCCC[C@H](N)C(=O)O
Legend:
[1] = tested on: human red blood cells (hRBCs); assay: Hemolysis assay; type: cell-based; settings: red cells of human, 1 h
Method: Figure 2 (A) Hemolytic activity of the engineered peptides against human red blood cells (hRBCs). The hRBCs were incubated with equal amounts of the respective peptides dissolved in PBS for 1 h at 37 °C. (B) Cytotoxicity of the engineered peptides against RAW264.7. […] Data shown are three independent experiments.
The hemolytic activity of the peptides is determined by measuring the amount of hemoglobin released during the lysis of human erythrocytes at different concentrations of AMPs. Briefly, fresh, healthy human red blood cells (hRBCs) were collected and then washed three times with phosphate-buffered saline (PBS) buffer (pH 7.2) and centrifuged at 1000× g for 5 min. Each 50 µL sample of hRBCs was incubated with 50 µL of the respective peptide dissolved in PBS in a well of a 96-well plate for 1 h at 37 °C. After incubation, the samples were centrifuged at 1000× g for 5 min and the supernatants (50 μL) were transferred to a new 96-well microplate. The release of hemoglobin was measured by monitoring the OD at 570 nm (Tecan, Salzburg, Austria). Negative (hRBCs without AMP treatment) and positive (hRBCs treated with 0.1% TritonX-100) controls were used. The concentration of peptide that caused 5% hemolysis was considered the minimal hemolysis concentration (MHC). The test was repeated three times. The percent hemolysis was calculated using the following formula:(2) Percent hemolysis=A−A0/At−A0× 100% A0 and At represent 0% and 100% hemolysis as measured in 10 mM PBS and 0.2% Triton X-100, respectively.

[2] = tested on: E. coli ATCC 25,922; assay: Swimming motility assay; type: cell-based; settings: 0.3% agar; OIR3, IR3, DIR3 at 4 μM and 8 μM; GS at all tested concentrations (1–8 µM)
Method: Figure 10 Swimming motility of E. coli ATCC 25,922 treated with OIR3, IR3, DIR3 and GS. Swim plates were prepared using 0.3% agar and inoculated from overnight cultures standardized to an optical density at 600 nm of 1.0. Images were taken after 20 h incubation at 37 °C. Data shown are the mean ± SD of three independent experiments.
Since E. coli ATCC 25,922 cell walls have flagella, their swimming motility can be measured in LB medium containing 0.3% agar. E. coli ATCC 25,922 bacteria were incubated overnight at 37 °C in a shaker until the OD600 = 1.0, then inoculated into 0.3% agar medium containing 1 µM, 2 µM, 4 µM or 8 µM of antimicrobial peptide and incubated again overnight at 37 °C. The swimming motility for each was then measured; each experiment was repeated three times.

[3] = RP-HPLC used as measure of hydrophobicity; 4.6 mm × 250 mm Venusil MP C18-5 column, 220 nm, linear acetonitrile gradient 15% to 45% in 30 min, 0.1% trifluoroacetic acid, 1 mL/min
Excerpt: In this experiment, cyclic, linear and D-proline antimicrobial peptides were designed based on the IR-rich template sequence (IR)nP(IR)nP (n = 1, 2 and 3). […] The […] molecular weights of the peptides were identified using mass spectrometry. […] The hydrophobicity of the peptides in solution is dependably mirrored by the HPLC retention times.

[4] = tested on: E. coli UB1005; assay: Outer membrane permeability assay (NPN uptake); type: cell-based; settings: E. coli UB1005, concentrations greater than 4 μM; relative to 10 μg/mL polymyxin B
Method: Figure 4 Outer membrane permeabilization assays of the engineered peptides. A 2 mL volume of E. coli UB1005 cells, diluted to 10^5 CFU/mL in 5 mM sodium HEPES buffer, was added to a quartz cuvette containing NPN to give a final concentration of 10 μM. Aliquots of peptides were added to the cuvette, and the fluorescence was recorded until there was no further increase in fluorescence. Data shown are three independent experiments.
The effect of antimicrobial peptides on the outer leaflet of the cell membrane was examined using the extracellular membrane-sensitive fluorescent dye NPN and the antibiotic-sensitive mutant E. coli UB 1005. […] The background fluorescence was measured (excitation λ = 350 nm, emission λ = 420 nm) with an F-4500 fluorescence spectrophotometer (Hitachi, Tokyo, Japan). […] The fluorescence was recorded in terms of the time needed until there was no further increase in fluorescence after mixing several concentrations (0.5–64 μM) of peptides. […] Values were converted to percent NPN uptake using the following equation:(3) %NPN uptake=Fobs−F0/F100−F0× 100% where Fobs is the observed fluorescence at a given peptide concentration, F0 is the initial fluorescence of NPN in E. coli UB1005 cells and F100 is the fluorescence of NPN in UB1005 cells upon the addition of 10 μg/mL polymyxin B, which had strong outer membrane permeability.

[5] = tested on: TNF-α production in RAW264.7 cells; assay: LPS-stimulated TNF-α production (ELISA); type: cell-based, mouse
Method: Figure 11 The inhibitory effects of OIR3, IR3, DIR3 and GS on LPS-stimulated TNF-α production in RAW264.7 cells. The levels of TNF-α in the […] were determined by ELISA using a commercial kit for mouse TNF-α. Data shown are the mean ± SD of three independent experiments.
LPS-activated inflammatory responses are always accompanied by the production of inflammatory cytokines, such as tumor necrosis factor-alpha (TNF-α). Briefly, 2 × 10^5 cells/well RAW264.7 cells were plated in 96-well plates and stimulated with LPS (100 ng/mL) in the absence or presence of the peptides (1–32 μM) for 18 h at 37 °C. The levels of TNF-α were determined using an ELISA kit (Boster, Wuhan, China) in accordance with the manufacturer’s instructions. TNF-α was measured by determining the absorbance at 540 nm.

Row | Compound | MHC5, minimum hemolytic concentration that induced ≥5% hemolysis [1] [µM] | inhibition of swimming motility [2] | RT (retention time) [3] [min] | outer membrane permeability (% NPN uptake) [4] | inhibition of LPS-stimulated TNF-α expression [5]
1 | CC(C)C[C@@H]1NC(=O)[C@H](CCCN)NC(=O)[C@H](C(C)C)NC(=O)[C@@H]2CCCN2C(=O)[C@@H](Cc2ccccc2)NC(=O)[C@H](CC(C)C)NC(=O)[C@H](CCCN)NC(=O)[C@H](C(C)C)NC(=O)[C@@H]2CCCN2C(=O)[C@@H](Cc2ccccc2)NC1=O [GS, gramicidin S, reference compound] (cyclo(V[Orn]L[dF]PV[Orn]L[dF]P)) | 8 | almost no inhibition | – | – | –
2 | CC[C@H](C)[C@@H]1NC(=O)[C@H](CCCNC(=N)N)NC(=O)[C@H]([C@@H](C)CC)NC(=O)[C@@H]2CCCN2C(=O)[C@H](CCCNC(=N)N)NC(=O)[C@H]([C@@H](C)CC)NC(=O)[C@H](CCCNC(=N)N)NC(=O)[C@H]([C@@H](C)CC)NC(=O)[C@H](CCCNC(=N)N)NC(=O)[C@H]([C@@H](C)CC)NC(=O)[C@@H]2CCCN2C(=O)[C@H](CCCNC(=N)N)NC(=O)[C@H]([C@@H](C)CC)NC(=O)[C@H](CCCNC(=N)N)NC1=O [OIR3] (cyclo(IRIRIRPIRIRIRP)) | >128 | significantly inhibit | 12.64 | more than 70% | more strongly inhibited
